ChEMBL document CHEMBL3259549, “Unraveling the structure-activity relationship of tomatidine, a steroid alkaloid with unique antibiotic properties against persistent forms of Staphylococcus aureus” (2014)
Values after ≈ are worked out from the molar mass of the structure shown.

Legend:
Staphylococcus aureus [1] = experiment: Antimicrobial activity against hemB-deficient Staphylococcus aureus Newbould after 48 hrs by broth microdilution method; type: functional
Staphylococcus aureus [2] = experiment: microbe, parasite or virus in culture; conditions: ATCC 29213, 48 h
Description: Antimicrobial activity against Staphylococcus aureus ATCC 29213 after 48 hrs by broth microdilution method

Staphylococcus aureus [3] = experiment: MIC fold reduction, ratio of gentamicin MIC for Staphylococcus aureus ATCC 29213 to gentamicin MIC for Staphylococcus aureus ATCC 29213 in presence of compound

Row | Molecule | MIC (Staphylococcus aureus [1]) [µg/mL] | MIC (Staphylococcus aureus [2]) [µg/mL] | gentamicin MIC fold reduction (Staphylococcus aureus [3])
1 | CN(C)CC(=O)[C@H]1CC[C@H]2[C@@H]3CC[C@H]4C[C@@H](O)CC[C@]4(C)[C@H]3CC[C@]12C | > 8 | > 64 | 2
2 | CC(NCCCCN)[C@H]1CC[C@H]2[C@@H]3CC[C@H]4C[C@@H](O)CC[C@]4(C)[C@H]3CC[C@]12C.Cl.Cl (some centres undefined) | > 8 | 32 | 2
3 | C[C@H]1CC[C@]2(NC1)O[C@H]1C[C@H]3[C@@H]4CC[C@H]5CC(N)CC[C@]5(C)[C@H]4CC[C@]3(C)[C@H]1[C@@H]2C.Cl.Cl (some centres undefined) | 1 | 32 | 8
4 | CC(=O)NC[C@@H](C)CCC1=C(C)[C@H]2[C@H](C[C@H]3[C@@H]4CC[C@H]5C[C@@H](O)CC[C@]5(C)[C@H]4CC[C@@]32C)O1 | > 8 | > 64 | 1
5 | C[C@H]1CC[C@]2(NC1)O[C@H]1C[C@H]3[C@@H]4CC[C@H]5CC(NCCN)CC[C@]5(C)[C@H]4CC[C@]3(C)[C@H]1[C@@H]2C.Cl.Cl.Cl (some centres undefined) | 0.5 | 8 | 4
6 | CC(N)[C@H]1CC[C@H]2[C@@H]3CC[C@H]4C[C@@H](O)CC[C@]4(C)[C@H]3CC[C@]12C.Cl (some centres undefined) | > 8 | 64 | 2
7 | C=CCO[C@H]1CC[C@@]2(C)[C@@H](CC[C@@H]3[C@@H]2CC[C@]2(C)[C@@H]4[C@H](C[C@@H]32)O[C@@]2(CC[C@H](C)CN2)[C@H]4C)C1.Cl | 0.25 | 16 | 8
8 | C[C@H]1CC[C@]2(NC1)O[C@H]1C[C@H]3[C@@H]4CC[C@H]5C[C@@H](O)CC[C@]5(C)[C@H]4CC[C@]3(C)[C@H]1[C@@H]2C.Cl | 0.06 | > 64 | 8
9 | CC(NCCCN)[C@H]1CC[C@H]2[C@@H]3CC[C@H]4C[C@@H](O)CC[C@]4(C)[C@H]3CC[C@]12C.Cl.Cl (some centres undefined) | > 8 | 32 | 2
10 | CC(NCCN)[C@H]1CC[C@H]2[C@@H]3CC[C@H]4C[C@@H](O)CC[C@]4(C)[C@H]3CC[C@]12C.Cl.Cl (some centres undefined) | > 8 | 32 | 2
11 | C[C@@H]1CC[C@@]2(NC1)O[C@H]1C[C@H]3[C@@H]4CC[C@H]5C[C@@H](O)CC[C@]5(C)[C@H]4CC[C@]3(C)[C@H]1[C@@H]2C | > 8 | > 64 | 1
12 | CC(=O)NC[C@@H](C)CCC(O)[C@@H](C)[C@H]1[C@@H](O)C[C@H]2[C@@H]3CC[C@H]4C[C@@H](O)CC[C@]4(C)[C@H]3CC[C@]12C (some centres undefined) | > 8 | > 64 | 1
13 | CCCCNC(C)[C@H]1[C@@H](O)C[C@H]2[C@@H]3CC[C@H]4C[C@@H](O)CC[C@]4(C)[C@H]3CC[C@@]21C.Cl (some centres undefined) | > 8 | > 64 | 2
14 | C[C@H]1CCC([C@@H](C)[C@H]2[C@@H](O)C[C@H]3[C@@H]4CC[C@H]5C[C@@H](O)CC[C@]5(C)[C@H]4CC[C@]23C)NC1.Cl (some centres undefined) | 4 | 32 | 4
15 | C[C@H]1CC[C@]2(NC1)O[C@H]1C[C@H]3[C@@H]4CC[C@H]5CC(=O)CC[C@]5(C)[C@H]4CC[C@]3(C)[C@H]1[C@@H]2C.Cl | 0.25 | > 64 | 8
16 | C[C@H]1CC[C@]2(NC1)O[C@H]1C[C@H]3[C@@H]4CC[C@H]5C[C@H](O)CC[C@]5(C)[C@H]4CC[C@]3(C)[C@H]1[C@@H]2C.Cl | 4 | > 64 | 4
17 | C[C@H]1CC[C@]2(NC1)O[C@H]1C[C@H]3[C@@H]4CC[C@H]5C[C@@H](O)CC[C@]5(C)[C@H]4CC[C@]3(C)[C@H]1[C@@H]2C [TOMATIDINE] | 0.12 (≈ 0.289 µM) | – | –
18 | C[C@H]1CC[C@]2(NC1)O[C@H]1C[C@H]3[C@@H]4CC[C@H]5CC(NCCCCCCN)CC[C@]5(C)[C@H]4CC[C@]3(C)[C@H]1[C@@H]2C.Cl.Cl.Cl (some centres undefined) | 1 | 32 | 2
19 | CCCCNC(C)[C@H]1CC[C@H]2[C@@H]3CC[C@H]4C[C@@H](O)CC[C@]4(C)[C@H]3CC[C@]12C.Cl (some centres undefined) | 4 | 64 | 8
20 | CC(C)CCNC(C)[C@H]1CC[C@H]2[C@@H]3CC[C@H]4C[C@@H](O)CC[C@]4(C)[C@H]3CC[C@]12C.Cl (some centres undefined) | > 8 | > 64 | 4
21 | CC(NCCCN(C)C)[C@H]1[C@@H](O)C[C@H]2[C@@H]3CC[C@H]4C[C@@H](O)CC[C@]4(C)[C@H]3CC[C@@]21C (some centres undefined) | > 8 | > 64 | 2
22 | C[C@]12CC[C@H](O)C[C@@H]1CC[C@@H]1[C@@H]2CC[C@]2(C)[C@@H](C(=O)CN3CCCCC3)CC[C@@H]12 | > 8 | > 64 | 2
23 | GENTAMICIN | 0.03 | – | –
24 | CC(=O)NC[C@@H](C)CCC1O[C@H]2C[C@H]3[C@@H]4CC[C@H]5C[C@@H](O)CC[C@]5(C)[C@H]4CC[C@]3(C)[C@H]2[C@@H]1C (some centres undefined) | > 8 | > 64 | 1
25 | C[C@H]1CC[C@@]2(O[C@H]3C[C@H]4[C@@H]5CC[C@H]6C[C@@H](O)CC[C@]6(C)[C@H]5CC[C@]4(C)[C@H]3[C@@H]2C)N(C=O)C1 | > 8 | > 64 | 2
26 | C[C@H]1CC[C@]2(NC1)O[C@H]1C[C@H]3[C@@H]4CC[C@H]5CC(NCCCCN)CC[C@]5(C)[C@H]4CC[C@]3(C)[C@H]1[C@@H]2C.Cl.Cl.Cl (some centres undefined) | 0.5 | 16 | 4
